Assay results published in the supplement of paper PMC10307832.

Assays:
Test in all cases: relative viability (nuclei count vs DMSO), 5 days (fraction); higher = more cells survive
[1] = compound: CS(=O)(=O)c1ccc(-c2cnc(N)c(C(=O)Nc3ccccc3)n2)cc1 [VE-821] + Nc1ncn([C@H]2C[C@H](O)[C@@H](CO)O2)c(=O)n1 [Decitabine] (partner 2 µM)
Method in brief: (§1)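 Relative viability is defined as nuclei in treated wells over nuclei in vehicle wells. Duplicate plates were run and medians reported. Lung cancer cell lines in 1536-well plates were dosed by pin tool one day after seeding, with one drug or with a fixed anchor-drug dose plus five library-drug doses (not always all listed) in √10 steps, and nuclei were counted after 5 days.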

[2] = compound: CS(=O)(=O)c1ccc(-c2cnc(N)c(C(=O)Nc3ccccc3)n2)cc1 [VE-821] + C[C@]1(O)C[C@@H](c2nc(-c3ccc4ccc(-c5ccccc5)nc4c3)c3c(N)nccn32)C1 [Linsitinib] (partner 1 µM)
Method in brief: as §1

[3] = compound: CS(=O)(=O)c1ccc(-c2cnc(N)c(C(=O)Nc3ccccc3)n2)cc1 [VE-821] + C[C@@H](Oc1cc(-c2cnn(C3CCNCC3)c2)cnc1N)c1c(Cl)ccc(F)c1Cl [Crizotinib] (partner 1 µM)
Method in brief: as §1

[4] = compound: N#CC[C@H](C1CCCC1)n1cc(-c2ncnc3[nH]ccc23)cn1 [Ruxolitinib] + CC(C)C[C@H](NC(=O)[C@H](Cc1ccccc1)NC(=O)c1cnccn1)B(O)O [Bortezomib] (partner 0.002 µM)
Method in brief: as §1

Cell Line NCI-H1792 has a relative viability ([1]; first compound 0.08 µM) of 0.639, a relative viability ([1]; first compound 0.253 µM) of 0.536 and a relative viability ([1]; first compound 0.8 µM) of 0.482. For the same cell line, the relative viability ([1]; first compound 2.53 µM) was 0.586, the relative viability ([1]; first compound 8 µM) was 0.529 and the relative viability ([2]; first compound 0.08 µM) was 0.55. The relative viability ([2]; first compound 0.253 µM) was 0.711, the relative viability ([2]; first compound 0.8 µM) was 0.438 and the relative viability ([2]; first compound 2.53 µM) was 0.553. For the same cell line, the relative viability ([2]; first compound 8 µM) was 0.421, the relative viability ([3]; first compound 0.08 µM) was 0.831 and the relative viability ([3]; first compound 0.253 µM) was 0.99. For the same cell line, the relative viability ([3]; first compound 0.8 µM) was 0.947, the relative viability ([3]; first compound 2.53 µM) was 1.01 and the relative viability ([3]; first compound 8 µM) was 0.949. The relative viability ([4]; first compound 0.08 µM) was 0.957, the relative viability ([4]; first compound 0.253 µM) was 0.905 and the relative viability ([4]; first compound 0.8 µM) was 0.911. The relative viability ([4]; first compound 2.53 µM) was 0.834 and the relative viability ([4]; first compound 8 µM) was 0.774.
NCI-H1915 was tested, and the relative viability ([1]; first compound 0.08 µM) was 0.284, the relative viability ([1]; first compound 0.253 µM) was 0.262 and the relative viability ([1]; first compound 0.8 µM) was 0.312. It also gave a relative viability ([1]; first compound 2.53 µM) of 0.266, a relative viability ([1]; first compound 8 µM) of 0.318 and a relative viability ([2]; first compound 0.08 µM) of 1.09. For the same cell line, the relative viability ([2]; first compound 0.253 µM) was 1.16, the relative viability ([2]; first compound 0.8 µM) was 1.13 and the relative viability ([2]; first compound 2.53 µM) was 1.18. It also gave a relative viability ([2]; first compound 8 µM) of 0.972, a relative viability ([3]; first compound 0.08 µM) of 0.892 and a relative viability ([3]; first compound 0.253 µM) of 0.856. For the same cell line, the relative viability ([3]; first compound 0.8 µM) was 0.883, the relative viability ([3]; first compound 2.53 µM) was 0.874 and the relative viability ([3]; first compound 8 µM) was 0.846. For the same cell line, the relative viability ([4]; first compound 0.08 µM) was 0.956, the relative viability ([4]; first compound 0.253 µM) was 0.955 and the relative viability ([4]; first compound 0.8 µM) was 0.91. It also gave a relative viability ([4]; first compound 2.53 µM) of 0.961 and a relative viability ([4]; first compound 8 µM) of 0.905.
Work on NCI-H1975 yielded a relative viability ([1]; first compound 0.08 µM) of 0.4, a relative viability ([1]; first compound 0.253 µM) of 0.38 and a relative viability ([1]; first compound 0.8 µM) of 0.358. The relative viability ([1]; first compound 2.53 µM) was 0.381, the relative viability ([1]; first compound 8 µM) was 0.324 and the relative viability ([2]; first compound 0.08 µM) was 0.932. For the same cell line, the relative viability ([2]; first compound 0.253 µM) was 0.92, the relative viability ([2]; first compound 0.8 µM) was 0.876 and the relative viability ([2]; first compound 2.53 µM) was 0.862. It also gave a relative viability ([2]; first compound 8 µM) of 0.658, a relative viability ([3]; first compound 0.08 µM) of 1.02 and a relative viability ([3]; first compound 0.253 µM) of 0.944. For the same cell line, the relative viability ([3]; first compound 0.8 µM) was 0.777, the relative viability ([3]; first compound 2.53 µM) was 0.758 and the relative viability ([3]; first compound 8 µM) was 0.652. It also gave a relative viability ([4]; first compound 0.08 µM) of 0.415, a relative viability ([4]; first compound 0.253 µM) of 0.382 and a relative viability ([4]; first compound 0.8 µM) of 0.482. For the same cell line, the relative viability ([4]; first compound 2.53 µM) was 0.303 and the relative viability ([4]; first compound 8 µM) was 0.316.
In the case of NCI-H1993, the relative viability ([1]; first compound 0.08 µM) is reported as 0.607, the relative viability ([1]; first compound 0.253 µM) is reported as 0.557 and the relative viability ([1]; first compound 0.8 µM) is reported as 0.596. The relative viability ([1]; first compound 2.53 µM) was 0.568, the relative viability ([1]; first compound 8 µM) was 0.486 and the relative viability ([2]; first compound 0.08 µM) was 0.729. The relative viability ([2]; first compound 0.253 µM) was 0.668, the relative viability ([2]; first compound 0.8 µM) was 0.764 and the relative viability ([2]; first compound 2.53 µM) was 0.697. The relative viability ([2]; first compound 8 µM) was 0.595, the relative viability ([3]; first compound 0.08 µM) was 0.897 and the relative viability ([3]; first compound 0.253 µM) was 0.844. For the same cell line, the relative viability ([3]; first compound 0.8 µM) was 0.809, the relative viability ([3]; first compound 2.53 µM) was 0.852 and the relative viability ([3]; first compound 8 µM) was 0.686. It also gave a relative viability ([4]; first compound 0.08 µM) of 0.893, a relative viability ([4]; first compound 0.253 µM) of 1.02 and a relative viability ([4]; first compound 0.8 µM) of 1.23. It also gave a relative viability ([4]; first compound 2.53 µM) of 1.26 and a relative viability ([4]; first compound 8 µM) of 1.29.
Cell Line NCI-H2009 has a relative viability ([1]; first compound 0.08 µM) of 0.381, a relative viability ([1]; first compound 0.253 µM) of 0.413 and a relative viability ([1]; first compound 0.8 µM) of 0.425. The relative viability ([1]; first compound 2.53 µM) was 0.413, the relative viability ([1]; first compound 8 µM) was 0.398 and the relative viability ([2]; first compound 0.08 µM) was 1.23. The relative viability ([2]; first compound 0.253 µM) was 1.19, the relative viability ([2]; first compound 0.8 µM) was 1.12 and the relative viability ([2]; first compound 2.53 µM) was 1.22. For the same cell line, the relative viability ([2]; first compound 8 µM) was 1.23, the relative viability ([3]; first compound 0.08 µM) was 1.08 and the relative viability ([3]; first compound 0.253 µM) was 1.01. For the same cell line, the relative viability ([3]; first compound 0.8 µM) was 0.963, the relative viability ([3]; first compound 2.53 µM) was 1.02 and the relative viability ([3]; first compound 8 µM) was 0.879. The relative viability ([4]; first compound 0.08 µM) was 1.19, the relative viability ([4]; first compound 0.253 µM) was 0.963 and the relative viability ([4]; first compound 0.8 µM) was 1.31. The relative viability ([4]; first compound 2.53 µM) was 0.828 and the relative viability ([4]; first compound 8 µM) was 0.646.
Work on NCI-H2023 yielded a relative viability ([1]; first compound 0.08 µM) of 0.249, a relative viability ([1]; first compound 0.253 µM) of 0.259 and a relative viability ([1]; first compound 0.8 µM) of 0.205. For the same cell line, the relative viability ([1]; first compound 2.53 µM) was 0.194, the relative viability ([1]; first compound 8 µM) was 0.13 and the relative viability ([2]; first compound 0.08 µM) was 0.779. It also gave a relative viability ([2]; first compound 0.253 µM) of 0.642, a relative viability ([2]; first compound 0.8 µM) of 0.329 and a relative viability ([2]; first compound 2.53 µM) of 0.539. The relative viability ([2]; first compound 8 µM) was 0.225, the relative viability ([3]; first compound 0.08 µM) was 0.715 and the relative viability ([3]; first compound 0.253 µM) was 0.659. The relative viability ([3]; first compound 0.8 µM) was 0.395, the relative viability ([3]; first compound 2.53 µM) was 0.316 and the relative viability ([3]; first compound 8 µM) was 0.193. It also gave a relative viability ([4]; first compound 0.08 µM) of 1.13, a relative viability ([4]; first compound 0.253 µM) of 0.928 and a relative viability ([4]; first compound 0.8 µM) of 1.43. It also gave a relative viability ([4]; first compound 2.53 µM) of 0.844 and a relative viability ([4]; first compound 8 µM) of 1.01.
With NCI-H2085 the relative viability ([1]; first compound 0.08 µM) was 0.539, the relative viability ([1]; first compound 0.253 µM) was 0.528 and the relative viability ([1]; first compound 0.8 µM) was 0.778. For the same cell line, the relative viability ([1]; first compound 8 µM) was 0.538, the relative viability ([2]; first compound 0.08 µM) was 0.979 and the relative viability ([2]; first compound 0.253 µM) was 0.891. It also gave a relative viability ([2]; first compound 0.8 µM) of 0.847, a relative viability ([2]; first compound 2.53 µM) of 0.941 and a relative viability ([2]; first compound 8 µM) of 0.926. The relative viability ([3]; first compound 0.08 µM) was 1.02, the relative viability ([3]; first compound 0.253 µM) was 0.755 and the relative viability ([3]; first compound 0.8 µM) was 0.824. For the same cell line, the relative viability ([3]; first compound 2.53 µM) was 0.954, the relative viability ([3]; first compound 8 µM) was 0.755 and the relative viability ([4]; first compound 0.08 µM) was 0.964. For the same cell line, the relative viability ([4]; first compound 0.253 µM) was 1.06, the relative viability ([4]; first compound 0.8 µM) was 1.26 and the relative viability ([4]; first compound 2.53 µM) was 0.904. The relative viability ([4]; first compound 8 µM) was 0.822.
NCI-H2087 was tested, and the relative viability ([1]; first compound 0.08 µM) was 0.381, the relative viability ([1]; first compound 0.253 µM) was 0.286 and the relative viability ([1]; first compound 0.8 µM) was 0.309. For the same cell line, the relative viability ([1]; first compound 2.53 µM) was 0.363, the relative viability ([1]; first compound 8 µM) was 0.275 and the relative viability ([2]; first compound 0.08 µM) was 1.18. For the same cell line, the relative viability ([2]; first compound 0.253 µM) was 0.873, the relative viability ([2]; first compound 0.8 µM) was 1.23 and the relative viability ([2]; first compound 2.53 µM) was 1.05. It also gave a relative viability ([2]; first compound 8 µM) of 0.864, a relative viability ([3]; first compound 0.08 µM) of 1.21 and a relative viability ([3]; first compound 0.253 µM) of 0.891. It also gave a relative viability ([3]; first compound 0.8 µM) of 1, a relative viability ([3]; first compound 2.53 µM) of 0.902 and a relative viability ([3]; first compound 8 µM) of 0.93. The relative viability ([4]; first compound 0.08 µM) was 0.849, the relative viability ([4]; first compound 0.253 µM) was 0.853 and the relative viability ([4]; first compound 0.8 µM) was 0.985. For the same cell line, the relative viability ([4]; first compound 2.53 µM) was 0.821 and the relative viability ([4]; first compound 8 µM) was 0.701.
